This is an account of results in PubChem BioAssay AID588839 (The Scripps Research Institute Molecular Screening Center, 2011).

SMILES strings stand for the structures. Calls of active or inactive are those of the source.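 How the source made its calls: active means EC50 at or below 10 µM; inactive means EC50 above 10 µM.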 Where only a bound is given, the exact number is not on record here.

This assay addresses cAMP-dependent protein kinase type I-alpha regulatory subunit (Bos taurus) + cAMP-dependent protein kinase catalytic subunit beta (Mus musculus) (UniProt P00514+P68181). Kind of assay: compounds dissociating PKAc from R1A subunit – biochemical, fluorescence polarization, powder samples, late-stage follow-up (AID 588839). As to conditions: PKA-R1A dissociation, Cy5-IP20 fluorescence polarization.
By EC50 is commonly meant the concentration at which the effect is half-maximal. Consider `COC(=O)c1sc2ncccc2c1OCc1ccccc1Cl`, for which the EC50 is > 100 µM (inactive).

In the case of `O=C(O)c1sc2ncccc2c1OCc1ccccc1`, the EC50 is > 100 µM (inactive).

`O=C(O)c1sccc1NC(=O)c1c(Cl)cccc1Cl`: the EC50 was > 100 µM (inactive).

`CC(C)(C)c1ccc(COc2ccsc2C(=O)O)cc1`: the EC50 was > 100 µM (inactive).

As to `Cc1csc(C(=O)O)c1NC(=O)c1ccc(F)cc1`, the EC50 was > 100 µM (inactive).

Consider `O=C(O)c1sccc1SCc1ccc(Cl)c(Cl)c1`, for which the EC50 is > 100 µM (inactive).

Take `O=C(O)c1sccc1SCc1ccc(Cl)cc1Cl`: the EC50 is > 100 µM (inactive).

On to `COC(=O)c1sc2ncccc2c1OCc1ccc(Cl)cc1Cl`, for which the EC50 was > 100 µM (inactive).

On to `Cc1ccc(COc2ccsc2C(=O)O)cc1`, for which the EC50 is > 100 µM (inactive).
